Data set [1] has as its system OCI-LY10-Luc CNS DLBCL xenograft. Briefly: OCI-LY10-Luc CNS lymphoma xenograft model (intracranial). It is filed as in vivo, Nude (nu/nu) mice. The note with it: for % BLI Inhibition on Day 26 / Median Survival: 3 weeks; for % BLI Inhibition on Day 26: relative to vehicle control; for Median Survival: vehicle 35 days. The protocol: Antitumor activity of Compound 1 was evaluated as a single agent in OCI-LY10-luc diffuse large B-cell lymphoma (DLBCL) xenografted intracranially into nude mice as a model for central nervous system (CNS) lymphoma.
CNS lymphoma study was conducted with OCI-LY-10 cells transfected with luciferase (OCI-LY-10-Luc). Nude (nu/nu) mice were inoculated intracranially into the right cerebral hemisphere of the brain with OCI-LY10-Luc cells. Following inoculation of animals, the tumors were allowed to grow for 5 days. On day 5 following tumor cell inoculation, the mice were imaged using IVIS100 imaging system. The mice having tumors with an average flux ranging between 1×10^7 and 2×10^7 photons/sec were pooled together and randomized into various treatment groups. Compound 1 was formulated in 0.5% Methyl Cellulose, 0.25% Tween 80 and 50 mM Citrate pH 3 (MCT) in water. The animals were orally administered vehicle (MCT) or Compound 1 once daily (QD) for 3 weeks. Doses of Compound 1 ranged between 3 and 30 mg/kg. The positive control pomalidomide (30 mg/kg, QD) formulated in aqueous 0.5% CMC and 0.25% Tween-80 was administered PO. The animals were imaged for bioluminescence once a week using IVIS100 imaging system and monitored for survival. Statistical analysis was performed using a log-rank test between Compound 1-treated and vehicle-treated control groups.

For data set [2], the system named is lymphoma cell lines WSU-DLCL2, SU-DHL6 and RL. Briefly: Macrophage mediated phagocytosis (ADCP) with rituximab. It is filed as cell-based. The note with it: macrophages treated with Compound 1 10 nM 48 hours, 3 hours. As for the experimental part:
Monocyte-derived macrophages (MDM) were generated by plating 8×10^6 commercial monocytes isolated from PBMC in RPMI media supplemented with 10% FBS, 1% L-glutamine and 60 ng/mL macrophage colony-stimulating factor (M-CSF) during 6 to 7 days. Then, MDM were treated with Compound 1 (10 nM) or DMSO control and cultured for an additional 48 hours prior to the assay. Lymphoma cell lines WSU-DLCL2, SU-DHL6 and RL were stained with CellTrace CFSE at 200 nM in PBS for 5 minutes at room temperature and added to the MDM cultures. At the time of co-culture, rituximab or isotype control were added to the media and cells were incubated at 37° C. during 3 hours. At the end of culture, cells were stained with anti-CD14 APC and images were acquired in Operetta. Phagocytosis index was calculated as cells positive for CFSE (green) and CD14 (red).

Data set [3] concerns lymphoma cell lines WSU-DLCL2, SU-DHL6, and RL. As to the kind of experiment: NK mediated cell killing (ADCC) with rituximab. The format is cell-based, human. The note with it: NK cells pre-treated with Compound 1 100 nM 18 hours; rituximab 7.5 ug/mL, 4 hours. The protocol:
Commercial purified NK cells isolated from human peripheral blood mononuclear cell (PBMC) were seeded at a concentration of 10^6 cells/mL, cultured in media supplemented with 10 ng/mLrhIL-2 and treated with Compound 1 (100 nM) for 18 hours at 37° C. prior to cytotoxicity assays. Target lymphoma cell lines were added to the pre-treated effector NK cells at a 1:10 (target:effector) cell ratio for WSU-DLCL2 and RL lines or 1:3 for SU-DHL6. At the time of co-culture, rituximab or isotype control at 7.5 ug/mL were added to the media and cells were incubated for 4 hours at 37° C. Then, cells were collected, stained with CD20, Annexin V and 7AAD and analyzed by FACS.

Consider `O=C1CC[C@H](N2C(=O)c3cccc(NCc4ccc(CN5CC(N6CCOCC6)C5)cc4F)c3C2=O)C(=O)N1` [Compound 1, (S)-2-(2,6-dioxopiperidin-3-yl)-4-((2-fluoro-4-((3-morpholinoazetidin-1-yl)methyl)benzyl)amino)isoindoline-1,3-dione], for which the results for the “% BLI Inhibition on Day 26” value in data set [1] (3 mg/kg QD oral), in data set [1] (10 mg/kg QD oral) and in data set [1] (30 mg/kg QD oral) were 97.2%, 99.1% and 99.5%, respectively. In addition, the entries for the “Median Survival” value in data set [1] (3 mg/kg QD oral), in data set [1] (10 mg/kg QD oral) and in data set [1] (30 mg/kg QD oral) were 61 days, 69 days and 97 days, respectively. The “animals survived with no detectable bioluminescence signal” value in data set [1] (10 mg/kg, day 120 (2/9)) worked out at 22.2%; in data set [1] (30 mg/kg, day 120 (3/9)) it was 33.3%. Moreover, the “phagocytosis of lymphoma cell lines mediated by macrophages (ADCP)” value in data set [2] was “enhances phagocytosis of lymphoma cell lines mediated by macrophages”. For the same compound, the “rituximab cytotoxicity of lymphoma cell lines (NK mediated cell killing, ADCC)” value in data set [3] was “able to increase rituximab cytotoxicity of lymphoma cell lines”.

The record behind these values is patent US11390617B2, “Methods of treating non-Hodgkin lymphoma using 2-(2,6-dioxopiperidin-3-yl)-4-((2-fluoro-4-((3-morpholinoazetidin-1-yl)methyl)benzyl)amino)isoindoline-1,3-dione” (Celgene Corporation, priority 2019, dated 2022).
